{"source": "patent US7147859B2", "about": "(Laboratorios Biosintetica LTDA., priority 2000, dated 2006)", "origin": "cited, not measured here", "system": "cholesterol absorbance", "settings": "in vivo"}
{"smiles": "CCC(CCC(C)C1CCC2C3CC=C4CC(O)CCC4(C)C3CCC12C)C(C)C", "note": "(stereo not shown) [Betasitosterol]", "values": [{"measurement": "reduction of cholesterol absorbance", "result": "up to 68%"}]}
